Test results as given in patent publication US20250082589A1, “PHENYLETHYLIDENEHYDRAZINE DIMERS AND METHODS OF USING SAME” (NEURAWELL THERAPEUTICS, priority 2021, published 2025).
Where two headings read alike, the source gives them in different places. One block for each compound: values may come before it.

Legend:
[1] = 1H NMR stability of PEH sample 1830-011 over time and in different deuterated solvents; type: physicochemical
Protocol: ^1H NMR was employed to probe the stability of PEH sample 1830-011 both in terms of time after preparation and in different deuterated solvents. […] In Py-d6, about 10% of PEH was transformed to the azine. Additionally, a new sample from the obtained oil in sample 1830-011 in which the oil was prepared after 3 days storage in −20° C. under argon was prepared and measured directly in CDCl3. After 3 days, the contamination of PEH with azine was equal to 18% (the ratio of PEH:Azine was 82:18).

[2] = pH stability studies at pH 9.2 and pH 7.4; type: physicochemical
Description: Batch 1830-013. Although UPLC confirmed the presence of PEH and the azine (FIG. 6A), no signals due to either species were detected in the NMR in CDCl3 (FIG. 6B).

[3] = LC-MS analysis of first preparative HPLC fraction in solution and after lyophilization; type: physicochemical
Protocol: See also FIG. 22A-C. […] Peak nos. […] Peak nos.
LCMS Method. The LCMS analysis was performed on a Dionex UHPLC Ultimate 3000 with DAD detector/Thermo Scientific ISQ EC-Mass Spectrometer with a wavelength range of 190-350 nm±4 nm. […] The elution scheme shown in Table 12 was used for chromatographic separation. Mobile phase C was 0.05% ammonium hydroxide in water (28.0-30.0% NH3 basis) and Mobile phase D was acetonitrile. The syringe washing solution was 20% MeOH. The MS conditions were a mass range of 100-1000 m/z and scan speed of 12 000 amu/sec.

[4] = PEH stability tests by LCMS (batch 1830-023); type: physicochemical; details: stored at −80° C.
Protocol: See also FIG. 27, which illustrates the results from the stability tests of PEH. […] Compounds were separated on a Kinetix® 2.6 μm XB—C18 (4.6×50 mm), 110A, column no. 00B-4496-EO column using gradient elution with a column temperature of 25° C. at a flow of 1.0 mL/min. The elution scheme shown in Table 15 was used for chromatographic separation. Mobile phase C was 0.05% ammonium hydroxide in water (28.0-30.0% NH3 basis) and Mobile phase D was acetonitrile. The syringe washing solution was 20% MeOH. The MS conditions were a mass range of 100-1000 m/z and scan speed of 12 000 amu/sec.

[5] = PEH 1830-003B, NMR
MAO-A = target: T1, MAO-A (Homo sapiens, UniProt P21397); details: cited from earlier work
T1 sequence (P21397 1-527): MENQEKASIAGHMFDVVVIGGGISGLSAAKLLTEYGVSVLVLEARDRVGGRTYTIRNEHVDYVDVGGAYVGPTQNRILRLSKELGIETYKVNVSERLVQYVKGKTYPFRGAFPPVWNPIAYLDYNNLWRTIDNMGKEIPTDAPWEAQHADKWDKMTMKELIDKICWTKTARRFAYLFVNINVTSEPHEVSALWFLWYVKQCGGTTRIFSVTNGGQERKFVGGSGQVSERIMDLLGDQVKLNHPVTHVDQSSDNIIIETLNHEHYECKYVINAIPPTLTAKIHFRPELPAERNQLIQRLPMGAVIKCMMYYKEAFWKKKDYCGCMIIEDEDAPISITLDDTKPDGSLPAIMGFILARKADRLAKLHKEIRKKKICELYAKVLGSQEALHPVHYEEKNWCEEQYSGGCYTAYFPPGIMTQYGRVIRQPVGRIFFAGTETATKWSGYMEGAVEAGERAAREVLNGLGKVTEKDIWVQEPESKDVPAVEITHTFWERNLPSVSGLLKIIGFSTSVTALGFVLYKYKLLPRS

MAO-B = target: T2, MAO-B (Homo sapiens, UniProt P27338); details: cited from earlier work
T2 sequence (P27338 1-520): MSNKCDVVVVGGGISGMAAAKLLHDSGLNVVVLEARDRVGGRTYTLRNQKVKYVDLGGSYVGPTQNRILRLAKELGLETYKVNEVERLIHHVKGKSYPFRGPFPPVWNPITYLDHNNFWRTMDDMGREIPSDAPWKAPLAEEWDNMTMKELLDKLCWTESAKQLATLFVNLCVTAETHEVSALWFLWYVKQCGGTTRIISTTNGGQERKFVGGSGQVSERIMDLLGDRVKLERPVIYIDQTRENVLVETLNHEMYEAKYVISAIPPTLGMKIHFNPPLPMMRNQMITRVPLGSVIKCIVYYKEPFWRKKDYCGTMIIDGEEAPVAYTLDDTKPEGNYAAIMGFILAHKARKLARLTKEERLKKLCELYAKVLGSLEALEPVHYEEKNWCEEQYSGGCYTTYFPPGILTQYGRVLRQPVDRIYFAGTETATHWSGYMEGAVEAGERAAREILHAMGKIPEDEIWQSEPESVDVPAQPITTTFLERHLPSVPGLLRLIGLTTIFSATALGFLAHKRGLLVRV

[6] = 1H NMR stability of azine sample 1830-012 over time and in different deuterated solvents; type: physicochemical; details: 1830-012 oil after 3 days storage in −20° C. under argon, new sample measured directly in CDCl3
Protocol: ^1H NMR was employed to probe the stability of azine sample 1830-012 both in terms of time after preparation and in different deuterated solvents.
Additionally, a new sample from the oil obtained in sample 1830-012, in which the oil was prepared after 3 days storage in −20° C. under argon, was prepared and measured directly in CDCl3.
After 3 days, the contamination of the azine with PEH was equal to 9% (the ratio of PEH:Azine was 9:91). […] Thus, it is theorized that purification cannot be accomplished by column chromatography. […] First, EtOH (2.0 mL) was added to 300 mg of crude product 1830-012 and heated to reflux. During refluxing, ˜1.0 mL of EtOH evaporated. The mixture was then slowly cooled to room temperature and then cooled to 0° C. After 3 days at 0° C., no precipitate was observed. In a second attempt, cold EtOH (3.0 mL) was added to 600 mg of crude product 1830-012 and the suspension was stirred at 0° C. for 15 minutes. The white precipitate was filtered (m=131 mg) and washed with small amounts of cold EtOH (see FIG. 5).

[7] = LC-MS analysis of azine yellow precipitate (1830-014) after dissolution and storage; type: physicochemical
Protocol: Crystallization was performed on 3.6 g of the crude azine product for 1830-014 using the second method as described above for 1830-012 (FIG. 9). White (m=0.490 g) and yellow (m=1.473 g) precipitates were obtained. LC-MS analysis was also performed on the azine sample obtained as a yellow precipitate (1830-014), with chromatograms obtained directly after dissolution (FIG. 10A) and 27 hours after dissolution (FIG. 10B). The quantitative results are described in Table 12 and Table 13 below. According to the LC-MS analysis using % relative area corresponding to the appropriate MS peaks, the azine sample obtained as a yellow precipitate was 96.24% azine. 27 hours after dissolution, the sample was 91.77% azine. After one month of storage at −20° C. under Argon, the sample was 91.56% azine (data not shown).
LCMS Method. The LCMS analysis was performed on a Dionex UHPLC Ultimate 3000 with DAD detector/Thermo Scientific ISQ EC-Mass Spectrometer with a wavelength range of 190-350 nm±4 nm. Compounds were separated on a Kinetix® 2.6 μm XB—C18 (4.6×50 mm), 110 A, column no. 00B-4496-EO column using gradient elution with a column temperature of 25° C. at a flow of 1.0 mL/min. The elution scheme shown in Table 12 was used for chromatographic separation. Mobile phase C was 0.05% ammonium hydroxide in water (28.0-30.0% NH3 basis) and Mobile phase D was acetonitrile. The syringe washing solution was 20% MeOH. The MS conditions were a mass range of 100-1000 m/z and scan speed of 12 000 amu/sec.

[8] = Stability under acidic or basic UPLC conditions; type: physicochemical
Protocol: Batch 1830-001. […] The purity of the sample was 20%.
The peak at R.T.=1.70 min corresponds to the azine according to mass spectrometry (FIG. 13B, bottom panel), and the azine was present at 69% purity.
UPLC Method. The UPLC analysis was performed on a Waters ACQUITY UPLC I-Class PLUS System with a Waters SQ Detector 2 in the wavelength range of 200-400 nm. Compounds were separated on an Acquity UPLC BEH C18 1.7 μm/130 Å (2.1×100 mm) column using gradient elution with a column temperature of 40° C. at a flow of 0.5 mL/min. The elution scheme shown in Table 11 was used for chromatographic separation. Mobile phase A was 0.05% ammonium hydroxide in water (28.0-30.0% NH3 basis) and Mobile phase B was acetonitrile. The syringe washing solution was 50% ACN, 50% water. The MS conditions were a mass range of […] and scan time of 0.15 s.

[9] = PEH 1830-011, first fraction after preparative HPLC and lyophilization

SMILES: NN=CCc1ccccc1 [PEH, phenylethylidenehydrazine]
contamination of PEH with azine ([1]; 1830-011 oil after 3 days storage in −20° C. under argon, new sample measured directly in CDCl3): 18%
PEH transformed to the azine ([1]; PEH sample 1830-011 in Py-d6): about 10%
pH stability ([2]; pH 7.4): the azine and the aldehyde are formed
pH stability ([2]; pH 9.2): stable at pH=9.2
stability during lyophilization [3]: undergoes decomposition during lyophilization
% PEH by LCMS [3, 9]: 12.70%
% azine in PEH sample by LCMS [3, 9]: 85.89%
% PEH by LCMS ([3]; PEH 1830-011, first fraction after preparative HPLC, solution, before lyophilization): 92.66%
% azine in PEH sample by LCMS ([3]; PEH 1830-011, first fraction in solution after preparative HPLC): 4.14%
Purity of PEH (summarized isomers), stability test ([4]; Extract (liq) in chloroform, after 1 day): 97.36
Purity of PEH (summarized isomers), stability test ([4]; Extract (liq) in chloroform, after 2 days): 97.86
Purity of PEH (summarized isomers), stability test ([4]; Extract (liq) in chloroform, after 3 days): 97.82
Purity of PEH (summarized isomers), stability test ([4]; Extract (liq) in chloroform, after 4 days): 97.65
Purity of PEH (summarized isomers), stability test ([4]; Extract (liq) in chloroform, after 7 days): 96.14
Purity of PEH (summarized isomers), stability test ([4]; Extract (liq) in chloroform, after reaction): 98.49
Purity of PEH (summarized isomers), stability test ([4]; solid (concentrated material), after 1 day): 68.46
Purity of PEH (summarized isomers), stability test ([4]; solid (concentrated material), after 2 days): 69.82
Purity of PEH (summarized isomers), stability test ([4]; solid (concentrated material), after 3 days): 64.26
Purity of PEH (summarized isomers), stability test ([4]; solid (concentrated material), after 4 days): 66.89
Purity of PEH (summarized isomers), stability test ([4]; solid (concentrated material), after 7 days): 67.38
Purity of PEH (summarized isomers), stability test ([4]; solid (concentrated material), after reaction): 81.17
level of azine impurity during drying ([5]; after drying for 15 min): 7%
level of azine impurity during drying ([5]; after drying for 3 hours): 22%
inhibition of MAO-A (MAO-A): weak and transient inhibitor
inhibition of MAO-B (MAO-B): weak and transient inhibitor

contamination of the azine with PEH [6]: 9%
pH stability ([2]; pH 9.2): stable at pH 9.2
% azine by LC-MS relative area ([7]; yellow precipitate 1830-014, 27 hours after dissolution): 91.77%
% azine by LC-MS relative area ([7]; yellow precipitate 1830-014, after one month of storage at −20° C. under Argon): 91.56%
% azine by LC-MS relative area ([7]; yellow precipitate 1830-014, directly after dissolution): 96.24%
stability during lyophilization ([3]; after preparative HPLC): remained stable after lyophilization
% azine by LC-MS relative area ([3]; azine 1830-015, first fraction after lyophilization): 99.93%
% azine by LC-MS relative area ([3]; azine 1830-015, first fraction after preparative HPLC, in solution): 99.61%
stability in acidic conditions (UPLC) ([8]; acidic conditions): not stable in acidic conditions
stability in basic conditions (UPLC) ([8]; basic conditions, sample 1830-001): stable in basic conditions
SMILES: C(/Cc1ccccc1)=N\N=C\Cc1ccccc1 [azine, (1E,2E)-1,2-bis(2-phenylethylidene)hydrazine]
pH stability ([2]; pH 7.4): undergoes rapid hydrolysis to the aldehyde
